Data set [1] has as its system migration of T cells towards SDF-1.
Method: (§3) The migration of T cells across polycarbonate filters (pore size 5 μm, diameter 6.5 mm) towards SDF-1 and MDC (CCL22) was assayed in 24-well Transwell chambers (Costar, Corning, Corning, N.Y.). T lymphocytes (1.67×10^6 cells/mL) were suspended in RPMI/0.1% BSA, and 150 μL of the cell suspension was added to the upper chamber after incubation with or without dopamine (90 min, 37° C.). Chemokines were added to the lower chamber at concentrations of 1 μg/mL SDF-1 (CytoLab, Israel) and 0.25 μg/mL MDC (R&D Systems). The plates were incubated for 90 min at 37° C. in 9.5% CO2. […] The numbers of migrating T cells were measured by flow cytometer acquisition for a fixed time (60 s). To calculate specific migration, the number of cells in each subpopulation in the absence of chemokine was subtracted from the number in the corresponding cell subpopulation that migrated in the presence of chemokines. The number of migrating CD4^+CD25^+ T cells was calculated as a percentage of the total T cell population before migration. For migration of purified population we used a similar protocol.
We also examined the migration of a mixed T cell population towards SDF-1.
The test system of another data set is CCR-4 mRNA in Treg. Particulars: 2 h with dopamine. The text has this: (§1) (xx) Polymerase chain reaction (PCR). Total RNA was purified with the RNeasy Mini Kit (Qiagen, Germantown, Md.) and transcribed into cDNA using poly dT primers. For PCR the following primers were used: […]
The next data set relates to Foxp3 expression in Treg. Particulars: 2 h exposure, analysed after 30 min or 24 h.
Excerpt: as §1

For data set [2], the system named is suppressive activity of Treg in vivo (neuronal survival). Particulars: Treg incubated with dopamine (10^−5 M, 2 h) prior to systemic injection. The text has this: To unequivocally show the direct effect of dopamine on Treg activity in vivo, we examined whether direct exposure of Treg to dopamine can reduce their suppressive activity in a model of neuronal survival.

Data set [3] has as its system IL-2 production by Treg and Teff. Particulars: media conditioned 48 h, without mrIL-2. As to the method: (x) Enzyme-linked immunosorbent assay. Treg or Teff (0.5×10^6 cells/ml) were cultured for 48 h in the presence of anti-CD3 and anti-CD28. After 48 h the cells were centrifuged and their supernatants were collected and sampled. Concentrations of IL-2 in the samples were determined by the use of sandwich enzyme-linked immunosorbent assay (ELISA) kits (R&D Systems, Minneapolis, Minn.). For detection of secreted IL-10 cells were centrifuged every 24 h and replaced with a fresh medium. Supernatants obtained from cells after 24, 48 and 72 h in culture were subjected to ELISA kit (Diaclone Research, Fleming, France). The plates were developed using a 3,3′,5,5′-tetramethyl-benzidine liquid substrate system (Sigma, St. Louis, Mo.). The reaction was stopped by adding 1M H3PO4. Results for each experiment were calculated as the amount of secreted cytokine per 1 ml of sample, after subtraction of the background levels of the medium.
It should be noted that activation of both T cell populations was carried out in the absence of mrIL-2.

For the next data set, the system named is CTLA-4 on Treg. Description: FACS analysis of CTLA-4 expression. The data set is classed as cell-based, mouse. Particulars: Treg activated 24 h, 2 h with compound, stained 24 h later. As to the method:
(vii) FACS analysis of CTLA-4-expressing CD4^+ T cells. Cells were immunostained according to the manufacturer's instructions, resuspended in 0.4 mL of 1% paraformaldehyde, and analyzed by FACSort (Becton-Dickinson), with 10,000 events scored. […] The cells were scored from a region defined according to physical parameters that indicate the size (forward scatter) and granularity (side scatter) of lymphocytes. CD4^+ lymphocytes were then gated for analysis of CTLA-4 expression.
To gain further insight into the mechanism whereby dopamine affects Treg activity we examined CTLA-4, a molecule characteristic of Treg (Im et al., 2001).

The test system of data set [4] is adhesion of Treg and Teff to fibronectin. As to the method: (§2) One of the main features of T cells is their ability to migrate to tissues in need of rescue or repair [such as diseased or damaged CNS (Hickey, 1999; Flugel et al., 2001). […] We therefore incubated Treg with dopamine for 2 h and then examined their adhesion to chondroitin sulfate proteoglycans (CSPG), extracellular matrix proteins often associated with injured tissues (Jones et al., 2003).

In data set [5] the test system is TGF-β1 transcripts in Treg. Particulars: after dopamine treatment.
Excerpt: as §1
Because the suppressive effect of Treg on Teff is partly due to transforming growth factor (TGF)-β1 (Nakamura et al., 2001), we measured whether exposure of Treg to dopamine affects the level of TGF-β1 expression.

The test system of the next data set is Treg. As to the kind of experiment: Treg apoptosis (propidium iodide sub-G1, annexin V, FACS). It is filed as cell-based, mouse. As to the method:
(viii) FACS analysis of annexin V-positive regulatory T cells. PE-stained CD25^+ cells were stained for annexin V-FITC according to the manufacturer's instructions. The cells were scored as described above, and CD25^+ lymphocytes were then gated for analysis of annexin V-positive cells.
(xv) Propidium iodide staining. Cells were fixed in cold ethanol 80% and treated with RNAse. Propidium iodide was then applied, and cell samples were assessed by FACSort.

For data set [6], the system named is adhesion of Treg and Teff to chondroitin sulfate proteoglycans (CSPG). Description: T cell adhesion to CSPG. The data set is classed as cell-based, mouse. As to the method:
(xiii) T cell adhesion. Adhesion of activated CD4^+CD25^+ and CD4^+CD25^− T cells to CSPG was analyzed as previously described (23). Briefly, flat-bottomed microtiter (96-well) plates were pre-coated with CSPG (1 μg/well, 40 min, 37° C.). ^51Cr-labeled T cells were left untreated or were pre-incubated (30 min, 37° C.) with dopamine or the specified agonist or antagonist (10^−5M). The cells (10^5 cells in 100 μL of RPMI containing 0.1% BSA) were then added to the CSPG-coated wells, incubated (30 min, 37° C.), and washed. Adherent cells were lysed and the resulting supernatants were removed and counted in a γ-counter. Results were expressed as the mean percentage of the total population before adhesion of bound T cells from quadruplicate wells for each experimental group.
as §2
To verify that the effect of dopamine on adhesion of Treg is exerted through the ERK1/2 pathway, we incubated Treg with the ERK1/2 signaling pathway inhibitor PD98059 before carrying out the adhesion assay. […] Since interaction of T cells with CSPG is mediated in part by the CD44 receptor (Henke et al., 1996), and in light of the known dependence of CD44 expression on the ERK signaling pathway, it was conceivable that dopamine might affect the expression of CD44 in Treg.

Data set [7] concerns migration of Treg towards MDC (CCL22).
Method: as §3
We therefore examined whether exposure to dopamine would also affect Treg migration. For this experiment we used a normal population of CD4^+ T cells, of which Treg (CD4^+CD25^+) accounts for approximately 11% (FIG. 4e).
To examine the direct effect of dopamine on the migration of Treg, we assayed the effect of dopamine on the migration of purified Treg towards MDC. The migratory Treg were stained for CD4 to ensure that cell debris and aggregates would not be counted among them.

The structures appear in SMILES notation.

For `NCCc1ccc(O)c(O)c1` [dopamine, 3,4-dihydroxyphenethylamine], the “Migration pattern of mixed T cell population towards SDF-1” value in [1] is “did not alter this pattern”. Also, the “Expression of CCR-4 in Treg” value with CCR-4 mRNA in Treg is “decreased”. Also, the “Foxp3 expression in Treg” value in the data set on Foxp3 expression in Treg was “no significant change”. Moreover, in data set [2], the “Suppressive effect of injected Treg on neuronal survival” value is “abolished their suppressive effect”. In addition, in data set [3], the “IL-2 level secreted by Teff” value is given as “not affected” and the “Production of IL-2 by Treg” value is “not detected”. Besides, the “CTLA-4 expression on Treg” value with CTLA-4 on Treg is given as “slightly but consistently decreased”. Moreover, in data set [4], the “Adhesion of Teff to fibronectin” value is “slight increase” and the “Adhesion of Treg to fibronectin” value is recorded as “no effect”. Further, the “Transcripts encoding TGF-β1 in Treg” value in data set [5] is reported as “decreased”. In addition, in the data set on Treg (Treg incubated with compound), the “Apoptosis, annexin V staining for phosphatidylserine” value is recorded as “could not detect any signs of apoptosis”. In the data set with Treg (Treg incubated with dopamine), the “Apoptotic cells (sub-G1), propidium iodide staining” value is on record as “No signs of apoptosis”. The “Adhesion of Teff to CSPG” value in [6] was “slight, nonsignificant effect”. Further, the “Adhesion of Treg to CSPG” value in data set [6] (dopamine 10^−9-10^−5 M, concentration-dependent, agonist 10^−5 M) is reported as “significantly decreased”. Moreover, the “Migration of purified Treg towards MDC” value in [7] is “almost completely abolished”. Further, the “Treg (CD4+CD25+) share of CD4+ cells migrating towards MDC” value in data set [7] (after exposure of CD4+ population to dopamine, 17% without dopamine) is given as “approximately 10%”. In addition, the “Migration of Teff” value in [7] (data not shown) is recorded as “no effect”.

The values above are taken from patent publication US20100168085A1, “Dopamine and agonists and antagonists thereof for modulation of suppressive activity of CD4+CD25+ regulatory T cells” (YESA RESEARCH AND DEVELOPMENT CO. LTD. at the Weizmann …, priority 2003, published 2010).
